ChEMBL document CHEMBL3991601, “The target landscape of clinical kinase drugs” (Science, 2017)
Active and inactive are the calls of the source. Rule as the data show it, for most assays here: actives have a measured Kd and inactives only a lower limit.

What was measured:
[1] = molecular target: Mitotic checkpoint serine/threonine-protein kinase BUB1 (Homo sapiens, UniProt O43683)
Adenosine kinase = Adenosine kinase (Homo sapiens, UniProt P55263)
[2] = molecular target: Calcium/calmodulin-dependent protein kinase type II subunit delta (Homo sapiens, UniProt Q13557)
[3] = molecular target: T1, Exosome RNA helicase MTR4 (Homo sapiens, UniProt P42285)
T1 sequence (P42285 whole entry): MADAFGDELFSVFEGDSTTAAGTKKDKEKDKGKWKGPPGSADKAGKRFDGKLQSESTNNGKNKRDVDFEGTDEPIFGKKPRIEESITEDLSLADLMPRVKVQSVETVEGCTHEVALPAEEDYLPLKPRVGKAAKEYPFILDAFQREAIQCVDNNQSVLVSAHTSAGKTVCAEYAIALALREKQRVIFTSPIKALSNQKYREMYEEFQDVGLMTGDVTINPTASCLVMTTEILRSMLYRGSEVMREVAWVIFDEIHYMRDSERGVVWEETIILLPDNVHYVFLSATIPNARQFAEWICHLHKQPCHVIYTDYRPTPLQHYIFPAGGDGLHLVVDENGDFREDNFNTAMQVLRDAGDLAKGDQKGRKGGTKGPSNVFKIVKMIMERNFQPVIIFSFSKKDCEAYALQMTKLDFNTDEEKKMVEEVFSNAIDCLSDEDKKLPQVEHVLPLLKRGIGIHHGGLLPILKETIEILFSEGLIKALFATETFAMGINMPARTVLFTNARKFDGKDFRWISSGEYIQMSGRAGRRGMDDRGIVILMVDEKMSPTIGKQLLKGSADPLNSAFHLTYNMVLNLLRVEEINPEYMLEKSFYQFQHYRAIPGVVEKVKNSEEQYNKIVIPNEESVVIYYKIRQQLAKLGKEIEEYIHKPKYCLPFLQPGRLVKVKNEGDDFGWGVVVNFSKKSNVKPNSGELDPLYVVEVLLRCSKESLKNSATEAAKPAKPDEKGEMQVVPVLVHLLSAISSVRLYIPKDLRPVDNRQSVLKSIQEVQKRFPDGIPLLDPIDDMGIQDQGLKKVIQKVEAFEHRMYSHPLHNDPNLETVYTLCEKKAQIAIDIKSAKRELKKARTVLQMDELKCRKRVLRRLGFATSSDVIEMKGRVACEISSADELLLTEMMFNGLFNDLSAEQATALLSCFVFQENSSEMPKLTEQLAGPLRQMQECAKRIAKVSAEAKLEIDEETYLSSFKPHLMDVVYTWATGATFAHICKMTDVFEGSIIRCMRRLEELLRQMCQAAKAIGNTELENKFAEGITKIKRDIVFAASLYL

[4] = molecular target: Cyclin-dependent kinase 3 (Homo sapiens, UniProt Q00526)
Sequence of Cyclin-dependent kinase 3 (Q00526 whole entry): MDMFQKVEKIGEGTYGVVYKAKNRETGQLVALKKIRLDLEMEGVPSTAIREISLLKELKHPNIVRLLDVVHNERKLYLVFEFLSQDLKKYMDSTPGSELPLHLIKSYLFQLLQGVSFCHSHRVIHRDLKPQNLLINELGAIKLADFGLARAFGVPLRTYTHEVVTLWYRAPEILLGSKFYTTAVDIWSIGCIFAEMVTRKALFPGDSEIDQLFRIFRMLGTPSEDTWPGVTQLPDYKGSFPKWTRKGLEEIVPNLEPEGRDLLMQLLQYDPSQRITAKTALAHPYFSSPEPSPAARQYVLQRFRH

[5] = molecular target: Adenylate kinase 2, mitochondrial (Homo sapiens, UniProt P54819)
[6] = molecular target: Serine/threonine-protein kinase SIK3 (Homo sapiens, UniProt Q9Y2K2)
Sequence of Serine/threonine-protein kinase SIK3 (Q9Y2K2 whole entry): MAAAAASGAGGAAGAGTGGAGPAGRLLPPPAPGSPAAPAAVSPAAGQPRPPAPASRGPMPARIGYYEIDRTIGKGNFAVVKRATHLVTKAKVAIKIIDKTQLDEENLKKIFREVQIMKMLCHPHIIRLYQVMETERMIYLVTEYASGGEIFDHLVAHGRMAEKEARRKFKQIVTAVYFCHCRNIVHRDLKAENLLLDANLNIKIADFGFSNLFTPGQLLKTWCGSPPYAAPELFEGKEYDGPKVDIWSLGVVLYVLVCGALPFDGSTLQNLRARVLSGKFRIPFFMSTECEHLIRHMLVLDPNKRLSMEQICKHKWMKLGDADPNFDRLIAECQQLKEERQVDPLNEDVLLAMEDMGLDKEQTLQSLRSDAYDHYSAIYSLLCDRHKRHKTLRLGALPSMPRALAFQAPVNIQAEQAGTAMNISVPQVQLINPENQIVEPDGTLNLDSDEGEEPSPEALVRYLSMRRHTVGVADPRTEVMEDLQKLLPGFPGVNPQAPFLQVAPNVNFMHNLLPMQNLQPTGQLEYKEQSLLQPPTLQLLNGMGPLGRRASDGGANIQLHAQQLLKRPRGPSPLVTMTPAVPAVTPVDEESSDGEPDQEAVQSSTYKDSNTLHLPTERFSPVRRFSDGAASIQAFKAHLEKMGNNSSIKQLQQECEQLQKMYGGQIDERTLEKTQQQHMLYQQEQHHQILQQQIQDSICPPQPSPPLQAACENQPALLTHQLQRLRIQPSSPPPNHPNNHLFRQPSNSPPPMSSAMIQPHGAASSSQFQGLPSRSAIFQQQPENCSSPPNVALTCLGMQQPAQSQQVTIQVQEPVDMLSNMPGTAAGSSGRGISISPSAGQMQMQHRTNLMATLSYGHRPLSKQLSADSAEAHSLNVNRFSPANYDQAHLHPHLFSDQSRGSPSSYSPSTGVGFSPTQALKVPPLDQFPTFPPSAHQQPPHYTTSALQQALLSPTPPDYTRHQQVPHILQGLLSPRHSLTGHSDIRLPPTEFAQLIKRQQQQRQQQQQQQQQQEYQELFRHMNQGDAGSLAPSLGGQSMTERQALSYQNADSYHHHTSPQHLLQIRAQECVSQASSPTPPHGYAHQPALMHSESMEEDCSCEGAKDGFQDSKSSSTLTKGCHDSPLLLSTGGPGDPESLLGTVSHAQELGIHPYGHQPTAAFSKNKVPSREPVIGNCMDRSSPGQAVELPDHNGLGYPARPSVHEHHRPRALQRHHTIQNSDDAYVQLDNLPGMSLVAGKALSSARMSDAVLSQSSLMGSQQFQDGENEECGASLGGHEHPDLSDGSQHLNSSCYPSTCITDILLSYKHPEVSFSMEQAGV

[7] = molecular target: Glycogen synthase kinase-3 alpha (Homo sapiens, UniProt P49840)
Sequence of Glycogen synthase kinase-3 alpha (P49840 whole entry): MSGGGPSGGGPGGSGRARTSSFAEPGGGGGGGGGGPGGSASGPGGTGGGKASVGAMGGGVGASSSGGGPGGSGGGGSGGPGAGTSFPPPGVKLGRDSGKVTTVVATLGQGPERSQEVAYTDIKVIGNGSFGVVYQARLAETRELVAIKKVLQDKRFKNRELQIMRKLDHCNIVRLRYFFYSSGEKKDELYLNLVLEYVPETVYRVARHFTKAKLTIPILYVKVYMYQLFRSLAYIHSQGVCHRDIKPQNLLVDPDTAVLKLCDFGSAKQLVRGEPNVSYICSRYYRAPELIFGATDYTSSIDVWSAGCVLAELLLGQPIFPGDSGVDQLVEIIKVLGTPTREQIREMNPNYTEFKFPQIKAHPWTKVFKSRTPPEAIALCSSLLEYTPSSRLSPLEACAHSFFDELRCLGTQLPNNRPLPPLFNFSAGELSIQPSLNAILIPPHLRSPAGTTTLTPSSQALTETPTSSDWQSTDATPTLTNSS

[8] = molecular target: Serine/threonine-protein kinase PAK 4 (Homo sapiens, UniProt O96013)
Sequence of Serine/threonine-protein kinase PAK 4 (O96013 whole entry): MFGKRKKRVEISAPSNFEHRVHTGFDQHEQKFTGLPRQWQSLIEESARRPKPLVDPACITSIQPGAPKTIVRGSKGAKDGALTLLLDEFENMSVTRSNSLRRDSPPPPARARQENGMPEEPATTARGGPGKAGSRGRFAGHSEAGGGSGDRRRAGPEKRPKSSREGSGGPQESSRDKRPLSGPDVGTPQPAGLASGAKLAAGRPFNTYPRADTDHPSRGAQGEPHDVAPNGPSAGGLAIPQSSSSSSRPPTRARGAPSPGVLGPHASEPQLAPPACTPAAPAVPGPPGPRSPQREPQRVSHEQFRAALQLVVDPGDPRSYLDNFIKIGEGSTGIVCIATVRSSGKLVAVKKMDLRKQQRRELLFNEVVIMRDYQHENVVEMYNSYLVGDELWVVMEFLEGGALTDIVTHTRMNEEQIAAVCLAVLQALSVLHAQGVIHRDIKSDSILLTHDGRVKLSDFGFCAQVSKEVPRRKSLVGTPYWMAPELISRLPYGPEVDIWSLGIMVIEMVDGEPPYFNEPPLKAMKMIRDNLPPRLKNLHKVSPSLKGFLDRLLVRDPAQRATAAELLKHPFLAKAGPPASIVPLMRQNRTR

[9] = molecular target: T2, Serine/threonine-protein kinase Chk1 (Homo sapiens, UniProt O14757)
T2 sequence (O14757 whole entry): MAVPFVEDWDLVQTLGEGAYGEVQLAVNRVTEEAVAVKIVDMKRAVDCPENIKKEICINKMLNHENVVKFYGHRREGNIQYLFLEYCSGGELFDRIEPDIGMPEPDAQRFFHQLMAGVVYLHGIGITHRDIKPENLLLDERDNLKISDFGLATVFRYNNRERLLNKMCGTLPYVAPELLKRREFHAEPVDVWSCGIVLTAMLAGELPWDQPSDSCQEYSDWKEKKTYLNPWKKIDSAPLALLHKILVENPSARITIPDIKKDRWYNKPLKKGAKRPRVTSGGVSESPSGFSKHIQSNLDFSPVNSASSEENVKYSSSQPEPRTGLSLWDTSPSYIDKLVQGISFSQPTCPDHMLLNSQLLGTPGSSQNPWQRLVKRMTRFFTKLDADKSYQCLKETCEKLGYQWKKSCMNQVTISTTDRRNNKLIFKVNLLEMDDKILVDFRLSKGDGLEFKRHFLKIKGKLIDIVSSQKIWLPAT

[10] = molecular target: Cyclin-dependent kinase 5 (Homo sapiens, UniProt Q00535)
Sequence of Cyclin-dependent kinase 5 (Q00535 whole entry, the tested form may be a part): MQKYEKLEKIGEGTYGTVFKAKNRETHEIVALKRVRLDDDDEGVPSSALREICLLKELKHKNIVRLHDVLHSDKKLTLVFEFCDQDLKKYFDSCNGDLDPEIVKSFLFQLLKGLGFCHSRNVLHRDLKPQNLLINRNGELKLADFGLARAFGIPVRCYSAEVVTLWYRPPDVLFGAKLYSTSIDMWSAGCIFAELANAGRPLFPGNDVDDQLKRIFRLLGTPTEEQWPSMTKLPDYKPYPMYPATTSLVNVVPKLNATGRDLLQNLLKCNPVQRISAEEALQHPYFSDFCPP

LIM domain kinase 2 = LIM domain kinase 2 (Homo sapiens, UniProt P53671)
[11] = molecular target: T3, Serine/threonine-protein kinase 3 (Homo sapiens, UniProt Q13188)
T3 sequence (Q13188 whole entry): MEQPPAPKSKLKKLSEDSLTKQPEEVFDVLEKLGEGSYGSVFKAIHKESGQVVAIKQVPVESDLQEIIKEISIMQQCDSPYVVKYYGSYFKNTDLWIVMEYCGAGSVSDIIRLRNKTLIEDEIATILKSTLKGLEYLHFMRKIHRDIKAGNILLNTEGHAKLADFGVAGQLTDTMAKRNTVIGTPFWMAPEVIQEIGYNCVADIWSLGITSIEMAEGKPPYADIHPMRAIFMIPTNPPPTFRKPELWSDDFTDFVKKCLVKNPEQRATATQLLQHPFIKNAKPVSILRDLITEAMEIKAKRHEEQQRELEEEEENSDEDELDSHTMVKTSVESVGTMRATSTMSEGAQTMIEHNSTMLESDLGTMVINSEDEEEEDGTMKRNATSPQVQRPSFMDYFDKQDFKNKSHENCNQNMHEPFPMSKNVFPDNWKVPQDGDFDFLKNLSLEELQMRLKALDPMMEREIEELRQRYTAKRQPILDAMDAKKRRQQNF

LIM domain kinase 1 = LIM domain kinase 1 (Homo sapiens, UniProt P53667)
[12] = molecular target: Serine/threonine-protein kinase 16 (Homo sapiens, UniProt O75716)
Sequence of Serine/threonine-protein kinase 16 (O75716 whole entry): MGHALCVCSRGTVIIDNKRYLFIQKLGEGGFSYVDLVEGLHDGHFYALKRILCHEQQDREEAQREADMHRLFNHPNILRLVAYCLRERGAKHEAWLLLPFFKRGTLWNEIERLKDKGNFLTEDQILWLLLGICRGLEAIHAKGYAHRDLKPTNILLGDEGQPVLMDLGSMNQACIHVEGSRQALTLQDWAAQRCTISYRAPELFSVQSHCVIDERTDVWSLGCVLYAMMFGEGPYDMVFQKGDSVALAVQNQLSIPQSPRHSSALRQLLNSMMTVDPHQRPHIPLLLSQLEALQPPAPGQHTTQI
Also: in the data inactive means no Kd found up to 30 µM.

Sequence of Mitotic checkpoint serine/threonine-protein kinase BUB1 (O43683 whole entry): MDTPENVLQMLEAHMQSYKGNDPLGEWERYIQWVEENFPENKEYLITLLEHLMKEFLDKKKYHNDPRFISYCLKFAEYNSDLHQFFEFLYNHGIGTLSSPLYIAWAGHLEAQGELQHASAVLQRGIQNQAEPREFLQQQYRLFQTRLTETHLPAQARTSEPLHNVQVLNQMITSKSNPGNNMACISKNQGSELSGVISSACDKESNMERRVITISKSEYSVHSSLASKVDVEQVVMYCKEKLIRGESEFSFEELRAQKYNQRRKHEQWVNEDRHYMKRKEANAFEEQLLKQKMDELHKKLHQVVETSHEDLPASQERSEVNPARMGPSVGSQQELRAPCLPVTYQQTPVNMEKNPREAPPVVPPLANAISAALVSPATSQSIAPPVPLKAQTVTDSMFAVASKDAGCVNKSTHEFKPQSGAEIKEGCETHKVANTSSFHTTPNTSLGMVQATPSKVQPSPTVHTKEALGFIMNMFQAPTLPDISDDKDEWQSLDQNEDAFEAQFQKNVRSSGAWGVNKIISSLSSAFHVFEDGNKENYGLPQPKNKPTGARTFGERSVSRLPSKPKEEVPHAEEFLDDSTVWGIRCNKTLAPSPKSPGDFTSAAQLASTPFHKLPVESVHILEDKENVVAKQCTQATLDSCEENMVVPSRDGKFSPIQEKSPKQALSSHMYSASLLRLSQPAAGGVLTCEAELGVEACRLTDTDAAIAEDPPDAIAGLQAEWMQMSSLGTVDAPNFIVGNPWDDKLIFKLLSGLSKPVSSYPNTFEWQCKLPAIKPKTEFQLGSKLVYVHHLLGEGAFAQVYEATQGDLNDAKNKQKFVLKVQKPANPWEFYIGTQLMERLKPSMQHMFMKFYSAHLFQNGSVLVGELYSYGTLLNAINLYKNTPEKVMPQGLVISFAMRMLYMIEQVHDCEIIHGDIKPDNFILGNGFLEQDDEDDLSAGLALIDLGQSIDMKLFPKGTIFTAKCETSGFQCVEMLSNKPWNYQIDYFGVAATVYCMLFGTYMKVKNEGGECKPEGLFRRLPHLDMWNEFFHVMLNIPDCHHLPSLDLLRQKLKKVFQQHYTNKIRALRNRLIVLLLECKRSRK
Sequence of Adenosine kinase (P55263 whole entry): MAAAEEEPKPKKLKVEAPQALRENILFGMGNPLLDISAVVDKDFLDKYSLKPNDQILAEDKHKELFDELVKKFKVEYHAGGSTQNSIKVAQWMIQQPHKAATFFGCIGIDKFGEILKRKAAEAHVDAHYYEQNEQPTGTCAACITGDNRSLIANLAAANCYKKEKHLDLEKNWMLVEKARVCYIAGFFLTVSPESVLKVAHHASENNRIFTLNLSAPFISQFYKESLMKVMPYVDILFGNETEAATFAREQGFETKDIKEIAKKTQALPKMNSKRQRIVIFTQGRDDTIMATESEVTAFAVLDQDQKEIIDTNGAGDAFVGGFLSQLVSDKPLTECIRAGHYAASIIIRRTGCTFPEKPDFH

| SMILES | Kd [1] | Kd (Adenosine kinase) | Kd [2] | Kd [3] | Kd [4] | Kd [5] | Kd [6] | Kd [7] | Kd [8] | Kd [9] | Kd [10] | Kd (LIM domain kinase 2) | Kd [11] | Kd (LIM domain kinase 1) | Kd [12] |
| --- | --- | --- | --- | --- | --- | --- | --- | --- | --- | --- | --- | --- | --- | --- | --- |
| COc1ccc2c(OCc3nnc4ccc(-c5ccccc5)nn34)ccnc2c1 [AMG-208] | > 30 µM (inactive) | > 30 µM (inactive) | > 30 µM (inactive) | > 30 µM (inactive) | > 30 µM (inactive) | > 30 µM (inactive) | > 30 µM (inactive) | > 30 µM (inactive) | > 30 µM (inactive) | > 30 µM (inactive) | > 30 µM (inactive) | > 30 µM (inactive) | > 30 µM (inactive) | > 30 µM (inactive) | > 30 µM (inactive) |
| S=C(NCc1ccc2c(c1)OCO2)N1CCN(c2ncnc3c2oc2ccccc23)CC1 [AMUVATINIB] | > 30 µM (inactive) | > 30 µM (inactive) | > 30 µM (inactive) | > 30 µM (inactive) | > 30 µM (inactive) | > 30 µM (inactive) | > 30 µM (inactive) | > 30 µM (inactive) | > 30 µM (inactive) | > 30 µM (inactive) | > 30 µM (inactive) | > 30 µM (inactive) | > 30 µM (inactive) | > 30 µM (inactive) | > 30 µM (inactive) |
| Cc1cc(Nc2nc(N[C@@H](C)c3ncc(F)cn3)ncc2Cl)n[nH]1 [AZD-1480] | > 30 µM (inactive) | > 30 µM (inactive) | > 30 µM (inactive) | > 30 µM (inactive) | 0.942 µM | > 30 µM (inactive) | > 30 µM (inactive) | > 30 µM (inactive) | 1.88 µM (active) | > 30 µM (inactive) | > 30 µM (inactive) | > 30 µM (inactive) | 0.86 µM (active) | > 30 µM (inactive) | > 30 µM (inactive) |
| COc1ccc(-c2ccc3ncc4c(c3c2)n(-c2ccc(N3CCNCC3)c(C(F)(F)F)c2)c(=O)n4C)cn1 [BGT-226 FREE BASE] | > 30 µM (inactive) | > 30 µM (inactive) | > 30 µM (inactive) | > 30 µM (inactive) | > 30 µM (inactive) | > 30 µM (inactive) | > 30 µM (inactive) | 3.4 µM (active) | > 30 µM (inactive) | > 30 µM (inactive) | > 30 µM (inactive) | > 30 µM (inactive) | > 30 µM (inactive) | > 30 µM (inactive) | > 30 µM (inactive) |
| COc1cccc(Nc2ncnn3ccc(CN4CC[C@@H](N)[C@H](O)C4)c23)c1 [BMS-690514] | > 30 µM (inactive) | > 30 µM (inactive) | 0.703 µM (active) | > 30 µM (inactive) | > 30 µM (inactive) | > 30 µM (inactive) | > 30 µM (inactive) | > 30 µM (inactive) | > 30 µM (inactive) | 1.87 µM (active) | > 30 µM (inactive) | > 30 µM (inactive) | > 30 µM (inactive) | > 30 µM (inactive) | > 30 µM (inactive) |
| COc1cc2nccc(Oc3ccc(NC(=O)C4(C(=O)Nc5ccc(F)cc5)CC4)cc3)c2cc1OC [CABOZANTINIB] | > 30 µM (inactive) | > 30 µM (inactive) | > 30 µM (inactive) | > 30 µM (inactive) | > 30 µM (inactive) | > 30 µM (inactive) | > 30 µM (inactive) | > 30 µM (inactive) | > 30 µM (inactive) | > 30 µM (inactive) | > 30 µM (inactive) | > 30 µM (inactive) | > 30 µM (inactive) | > 30 µM (inactive) | > 30 µM (inactive) |
| c1cc(OCCN2CCCCC2)cc(-c2n[nH]c3ccc(-c4nc[nH]n4)cc23)c1 [CC-401] | > 30 µM (inactive) | > 30 µM (inactive) | > 30 µM (inactive) | > 30 µM (inactive) | > 30 µM (inactive) | > 30 µM (inactive) | > 30 µM (inactive) | > 30 µM (inactive) | > 30 µM (inactive) | > 30 µM (inactive) | > 30 µM (inactive) | > 30 µM (inactive) | > 30 µM (inactive) | > 30 µM (inactive) | > 30 µM (inactive) |
| COc1cc2ncnc(Nc3ccc(F)c(Cl)c3)c2cc1NC(=O)/C=C/CN1CCCCC1 [DACOMITINIB ANHYDROUS] | > 30 µM (inactive) | > 30 µM (inactive) | > 30 µM (inactive) | > 30 µM (inactive) | > 30 µM (inactive) | > 30 µM (inactive) | > 30 µM (inactive) | > 30 µM (inactive) | > 30 µM (inactive) | > 30 µM (inactive) | > 30 µM (inactive) | > 30 µM (inactive) | > 30 µM (inactive) | > 30 µM (inactive) | > 30 µM (inactive) |
| CC[C@@](C)(Nc1ccnc(-c2c[nH]c3ncccc23)n1)C(=O)NCC(F)(F)F [DECERNOTINIB] | > 30 µM (inactive) | > 30 µM (inactive) | 20.3 µM (active) | > 30 µM (inactive) | > 30 µM (inactive) | > 30 µM (inactive) | > 30 µM (inactive) | > 30 µM (inactive) | > 30 µM (inactive) | > 30 µM (inactive) | > 30 µM (inactive) | > 30 µM (inactive) | > 30 µM (inactive) | > 30 µM (inactive) | > 30 µM (inactive) |
| CCc1nc(C(N)=O)c(Nc2ccc(N3CCC(N4CCN(C)CC4)CC3)c(OC)c2)nc1NC1CCOCC1 [GILTERITINIB] | 0.191 µM (active) | > 30 µM (inactive) | 0.207 µM (active) | > 30 µM (inactive) | > 30 µM (inactive) | > 30 µM (inactive) | > 30 µM (inactive) | > 30 µM (inactive) | > 30 µM (inactive) | > 30 µM (inactive) | > 30 µM (inactive) | > 30 µM (inactive) | > 30 µM (inactive) | > 30 µM (inactive) | 0.295 µM (active) |
| Cc1c(Cn2c(C)nc3c(C(=O)O)cc(N4CCOCC4)cc32)cccc1C(F)(F)F [GSK-2636771] | > 30 µM (inactive) | > 30 µM (inactive) | > 30 µM (inactive) | > 30 µM (inactive) | > 30 µM (inactive) | > 30 µM (inactive) | > 30 µM (inactive) | > 30 µM (inactive) | > 30 µM (inactive) | > 30 µM (inactive) | > 30 µM (inactive) | > 30 µM (inactive) | > 30 µM (inactive) | > 30 µM (inactive) | > 30 µM (inactive) |
